Measured values taken from patent US8664252B2, “Phosphodiesterase type III (PDE III) inhibitors or CA2+-sensitizing agents for the treatment of hypertrophic cardiomyopathy” (Boehringer Ingelheim Vetmedica GmbH, priority 2008, dated 2014).

System: Cats Suffering from HCM
Test: Treatment of a cat suffering from HCM with acute circulatory failure (clinical case)
Type: in vivo
Procedure: A 15 year old castrated male tomcat of mixed breed (mother Persian, father European short hair, bodyweight 6 kg) was brought to the veterinary clinic in March 2008. The animal was lethargic and unable to move. Examination of the cardiovascular system indicated acute circulatory failure, accompanied with tachycardia (>180 bpm). Echocardiographic investigation indicated a thickened left ventricular wall and septum, which are related to HCM.
Because of the desperate situation 1.25 mg pimobendan were applied orally with the expectation/fear that this measure would/could probably further deteriorate the status of the cat.
This treatment is still being continued.

Row | Compound | control of acute circulatory failure (clinical situation) (15 year old tomcat with HCM, 6 kg, furosemide 1 mg/kg i.v., immediate administration) | clinical symptoms / recovery (same cat, after insufficient furosemide, 1.25 mg pimobendan orally, single application) | left ventricular filling and systolic function (ultrasound) (same cat, continued treatment 20 microgram/kg/day pimobendan orally)
1 | NS(=O)(=O)c1cc(C(=O)O)c(NCc2ccco2)cc1Cl [furosemide] | did not result in a sufficient control of the situation | – | –
2 | COc1ccc(-c2nc3cc(C4=NNC(=O)CC4C)ccc3[nH]2)cc1 (stereo not drawn) [pimobendan, 4,5-dihydro-6-[2-(4-methoxyphenyl)-1H-benzimidazol-5-yl]-5-methyl-3 (2H)-pyridazinone] | – | clinical symptoms improved and the cat recovered within a few hours | significant recovery of left ventricular filling and systolic function
